pIC50: −log10 of the molar value.
Tested on: HIV-1
Experiment: HIV infectivity assay (Table 2, strain not given)
Assay type: cell-based
Conditions: Human immunodeficiency virus 1, read-out: Activity Level
Description: (§1) Compounds were profiled against two HIV-1 viruses, the M-tropic (CCR5 utilizing) Ba-L strain and the T-tropic (CXCR4 utilizing) IIIB strain. Both viruses were propagated in human peripheral blood lymphocytes. Compounds were tested for there ability to block infection of the HOS cell line (expressing hCXCR4/hCCR5/hCD4/pHIV-LTR-luciferase) by either HIV-1 Ba-L or HIV-1, IIIB. Compound cytotoxicity was also examined in the absence of virus addition.
(§2) HOS cells (expressing hCXCR4/hCCR5/hCD4/pHIV-LTR-luciferase) were harvested and diluted in Dulbeccos modified Eagles media supplemented with 2% FCS and non-essential amino acid to a concentration of 60,000 cells/ml. The cells were plated into 96-well plates (100 ul per well) and the plates were placed in a tissue culture incubator (37° C.; 5% CO2/95% air) for a period of 24 h.
Subsequently, 50 ul of the desired drug solution (4 times the final concentration) was added to each well and the plates were returned to the tissue culture incubator (37° C.; 5% CO2/95% air) for 1 h. Following this incubation 50 ul of diluted virus was added to each well (approximately 2 million RLU per well of virus). The plates were returned to the tissue culture incubator (37° C.; 5% CO2/95% air) and were incubated for a further 96 h.
Following this incubation the endpoint for the virally infected cultures was quantified following addition of Steady-Glo Luciferase assay system reagent (Promega, Madison, Wis.). Cell viability or non-infected cultures was measured using a CellTiter-Glo luminescent cell viability assay system (Promega, Madison, Wis.). All luminescent readouts are performed on a Topcount luminescence detector (Packard, Meridien, Conn.).
as §1, with “Ba-L was” for “Both viruses were”, “either peripheral blood lymphocytes or SupT1/CCR5+/CXCR4+ cells. IIIB was propagated in” for “human”, “their” for “there”
as §2, with “FCS” for “FCS and non-essential amino acid”, “120,000” for “60,000”, “(50 μl” for “(100 ul”, “(370°” for “(37°”
Subsequently, 50 μl of the desired drug solution (2 times the final concentration) was added to each well and the plates were returned to the tissue culture incubator (370° C.; 5% CO2/95% air) for 1 h. Following this incubation, 60 μl of diluted virus (4 times the final concentration) was added to 60 μl of 2× the final desired concentration of the compound and 100 μl of this compound/virus mix was added to each well (approximately 2 million RLU per well of virus). The plates were returned to the tissue culture incubator (370° C.; 5% CO2/95% air) and were incubated for a further 96 h.

| Structure (SMILES) | pIC50 |
| --- | --- |
| CN1CCCN(c2cccc3nc(CN4CCC[C@@H]5CCCc6cccnc6[C@H]54)cn23)CC1 (relative stereo) [Example 125, (trans) 1-{[5-(4-methylhexahydro-1H-1,4-diazepin-1-yl)imidazo[1,2-a]pyridin-2-yl]methyl}-2,3,4,4a,5,6,7,11b-octahydro-1H-pyrido[3′,2′:6,7]cyclohepta[1,2-b]pyridine] | 6.30 to 7.00 |
| CC(C)N1CCN(c2cccc3nc(CN4CCC[C@H]5CCc6cccnc6[C@H]54)cn23)CC1 [Example 82, (4aR,10bS)-1-({5-[4-(1-methylethyl)-1-piperazinyl]imidazo[1,2-a]pyridin-2-yl}methyl)-1,2,3,4,4a,5,6,10b-octahydro-1,10-phenanthroline] | > 7.00 |
| NCCCCCn1c(CN2CCC[C@@H]3CCc4cccnc4[C@H]32)nc2ccccc21 (relative stereo) [Example 35, (trans)-5-[2-(3,4,4a,5,6,10b-hexahydro-1,10-phenanthrolin-1(2H)-ylmethyl)-1H-benzimidazol-1-yl]-1-pentanamine] | 6.30 to 7.00 |
| CN1CCN(c2cccc3nc(CN4CCC[C@@H]5CCCc6cccnc6[C@H]54)cn23)CC1 [Example 123, (4aS,11bS)-1-{[5-(4-methyl-1-piperazinyl)imidazo[1,2-a]pyridin-2-yl]methyl}-2,3,4,4a,5,6,7,11b-octahydro-1H-pyrido[3′,2′:6,7]cyclohepta[1,2-b]pyridine] | > 7.00 |
| N[C@@H]1CCN(c2cccc3nc(CN4CCC[C@H]5CCc6cccnc6[C@H]54)cn23)C1 [Example 110, (3R)-1-{2-[(4aR,10bS)-3,4,4a,5,6,10b-hexahydro-1,10-phenanthrolin-1(2H)-ylmethyl]imidazo[1,2-a]pyridin-5-yl}-3-pyrrolidinamine] | > 7.00 |
| c1cnc2c(c1)CC[C@@H]1CCCN(Cc3cn4c(NC[C@@H]5CCCNC5)cccc4n3)[C@H]21 [Example 113, 2-[(4aR,10bS)-3,4,4a,5,6,10b-hexahydro-1,10-phenanthrolin-1(2H)-ylmethyl]-N-[(3R)-3-piperidinylmethyl]imidazo[1,2-a]pyridin-5-amine] | > 7.00 |
| c1cnc2c(c1)CC[C@@H]1CCCN(Cc3c[nH]cn3)[C@H]21 [Example 50, (4aR,10bS)-1-(1H-imidazol-4-ylmethyl)-1,2,3,4,4a,5,6,10b-octahydro-1,10-phenanthroline] | 5.00 to 6.30 |
| OC1CCN(c2cccc3nc(CN4CCC[C@H]5CCc6cccnc6[C@H]54)cn23)CC1 [Example 69, 1-{2-[(4aR,10bS)-3,4,4a,5,6,10b-hexahydro-1,10-phenanthrolin-1(2H)-ylmethyl]imidazo[1,2-a]pyridin-5-yl}-4-piperidinol] | 6.30 to 7.00 |
| c1cnc2c(c1)CC[C@@H]1CCCN(Cc3nc4ccccc4n3CCCN3CCCCC3)[C@H]21 (racemic) [Example 43, (cis) 1-({1-[3-(1-piperidinyl)propyl]-1H-benzimidazol-2-yl}methyl)-1,2,3,4,4a,5,6,10b-octahydro-1,10-phenanthroline] | > 7.00 |
| c1ccc(N2CCN(c3cccc4nc(CN5CCC[C@H]6CCc7cccnc7[C@H]65)cn34)CC2)nc1 [Example 80, (4aR,10bS)-1-({5-[4-(2-pyridinyl)-1-piperazinyl]imidazo[1,2-a]pyridin-2-yl}methyl)-1,2,3,4,4a,5,6,10b-octahydro-1,10-phenanthroline] | 6.30 to 7.00 |
| CN1CCC(Nc2cccc3nc(CN4CCC[C@H]5CCc6cccnc6[C@H]54)cn23)CC1 [Example 68, 2-[(4aR,10bS)-3,4,4a,5,6,10b-hexahydro-1,10-phenanthrolin-1(2H)-ylmethyl]-N-(1-methyl-4-piperidinyl)imidazo[1,2-a]pyridin-5-amine] | > 7.00 |
| c1ccc(Cn2c(CN3CCC[C@H]4CCc5cccnc5[C@H]43)nc3ccccc32)nc1 (racemic) [Example 45, (cis) 1-{[1-(2-pyridinylmethyl)-1H-benzimidazol-2-yl]methyl}-1,2,3,4,4a,5,6,10b-octahydro-1,10-phenanthroline] | 5.00 to 6.30 |
| c1cnc2c(c1)CC[C@@H]1CCCN(Cc3cn4c(N5CCC(N6CCCC6)CC5)cccc4n3)[C@H]21 [Example 72, (4aR,10bS)-1-({5-[4-(1-pyrrolidinyl)-1-piperidinyl]imidazo[1,2-a]pyridin-2-yl}methyl)-1,2,3,4,4a,5,6,10b-octahydro-1,10-phenanthroline] | > 7.00 |
| CN1CCCC(Cn2c(CN3CCC[C@@H]4CCc5cccnc5[C@H]43)nc3ccccc32)C1 (relative stereo) [Example 42, (trans) 1-({1-[(1-methyl-3-piperidinyl)methyl]-1H-benzimidazol-2-yl}methyl)-1,2,3,4,4a,5,6,10b-octahydro-1,10-phenanthroline] | 6.30 to 7.00 |
| CN1CCN(Cc2c(CN3CCC[C@H]4CCc5cccnc5[C@H]43)nc3cccc(N4CCN(C)CC4)n23)CC1 [Example 56, (4aR,10bS)-1-({5-(4-methyl-1-piperazinyl)-3-[(4-methyl-1-piperazinyl)methyl]imidazo[1,2-a]pyridin-2-yl}methyl)-1,2,3,4,4a,5,6,10b-octahydro-1,10-phenanthroline] | > 7.00 |
| CN(C)CCCn1c(CN2CC[C@@H]3CCc4cccnc4[C@H]32)nc2ccccc21 (racemic) [Example 132, (trans) 3-[2-(2,3,3a,4,5,9b-hexahydro-1H-pyrrolo[3,2-h]quinolin-1-ylmethyl)-1H-benzimidazol-1-yl]-N,N-dimethyl-1-propanamine] | 6.30 to 7.00 |
| CC(C)N1CCC[C@H](Cn2c(CN3CCC[C@H]4CCc5cccnc5[C@H]43)nc3ccccc32)C1 [Example 65, (4aR,10bS)-1-[(1-{[(3S)-1-(1-methylethyl)-3-piperidinyl]methyl}-1H-benzimidazol-2-yl)methyl]-1,2,3,4,4a,5,6,10b-octahydro-1,10-phenanthroline] | > 7.00 |
| CN(C)[C@@H]1CCN(c2cccc3nc(CN4CCC[C@H]5CCc6cccnc6[C@H]54)cn23)C1 [Example 105, (3R)-1-{2-[(4aR,10bS)-3,4,4a,5,6,10b-hexahydro-1,10-phenanthrolin-1(2H)-ylmethyl]imidazo[1,2-a]pyridin-5-yl}-N,N-dimethyl-3-pyrrolidinamine] | > 7.00 |
| c1cnc2c(c1)CC[C@@H]1CCCN(Cc3cn4c(NC5CCNC5)cccc4n3)[C@H]21 (stereo partly drawn) [Example 109, 2-[(4aR,10bS)-3,4,4a,5,6,10b-hexahydro-1,10-phenanthrolin-1(2H)-ylmethyl]-N-3-pyrrolidinylimidazo[1,2-a]pyridin-5-amine] | 6.30 to 7.00 |
| CN1CCN(c2cccc3nc(CN4CCC[C@H]5CCc6cccnc6[C@@H]54)cn23)CC1 [Example 53, (4aR,10bR)-1-{[5-(4-methyl-1-piperazinyl)imidazo[1,2-a]pyridin-2-yl]methyl}-1,2,3,4,4a,5,6,10b-octahydro-1,10-phenanthroline] | > 7.00 |
| CN(C)C(=O)CN1CCN(c2cccc3nc(CN4CCC[C@H]5CCc6cccnc6[C@H]54)cn23)CC1 [Example 102, 2-(4-{2-[(4aR,10bS)-3,4,4a,5,6,10b-hexahydro-1,10-phenanthrolin-1(2H)-ylmethyl]imidazo[1,2-a]pyridin-5-yl}-1-piperazinyl)-N,N-dimethylacetamide] | > 7.00 |
| CN1CCC(N(C)c2cccc3nc(CN4CCC[C@H]5CCc6cccnc6[C@H]54)cn23)CC1 [Example 74, 2-[(4aR,10bS)-3,4,4a,5,6,10b-hexahydro-1,10-phenanthrolin-1(2H)-ylmethyl]-N-methyl-N-(1-methyl-4-piperidinyl)imidazo[1,2-a]pyridin-5-amine] | > 7.00 |
| CCN(CC)Cc1c(CN2CCC[C@H]3CCc4cccnc4[C@H]32)nc2cccc(N3CCN(C)CC3)n12 [Example 55, N-ethyl-N-{[2-[(4aR,10bS)-3,4,4a,5,6,10b-hexahydro-1,10-phenanthrolin-1(2H)-ylmethyl]-5-(4-methyl-1-piperazinyl)imidazo[1,2-a]pyridin-3-yl]methyl}ethanamine] | > 7.00 |
